Consider 6 molecules from patent publication US20260250320A1, “LIPIDATED PEPTIDE INHIBITORS OF INTERLEUKIN-23 RECEPTOR” (Janssen Pharmaceutica NV, priority 2023, published 2026).

Molecules are shown by their SMILES. *1 amine or outer side, *2 acyl side, *3 side chain or, on linkers, in order; H or OH if unused. Where a SMILES comes first, the peptide text is derived from it. Bridges are numbered along the chain shown (N, C = ends). Side-chain parts run from the residue outwards. [ ]: non-standard residue; d: D form. The star is where a group is joined. ξ: configuration not given here. X9 = O=C(O)CCCCCCCCCCCCCCCCC(=O)N[C@@H](CCC(=O)NCCOCCOCCOCCOCCOCCOCCOCCOCCOCCOCCOCCCCCC(=O)*)C(=O)O; X16 = CC(C)(S[*:2])[C@H](CC(=O)CCOCCOCC[N+](C)(C)C)C(=O)[*:1]; Me3N+(CH2)2O(CH2)2O(CH2)2CO = C[N+](C)(C)CCOCCOCCC(=O)*; PEG12 = NCCOCCOCCOCCOCCOCCOCCOCCOCCOCCOCCOCCOCCC(=O)O; CH2CH2OCH2CH2OCH2CH2NMe3+ = C[N+](C)(C)CCOCCOCC*; Trp(7-Me) = Cc1cccc2c(C[C@H](N)C(=O)O)c[nH]c12; C20 diacid = O=C(O)CCCCCCCCCCCCCCCCCCC(=O)*; C18 diacid = O=C(O)CCCCCCCCCCCCCCCCC(=O)*; γGlu = O=C(O)[C@H](CCC(=O)[*:2])N[*:1]; 2Nal = N[C@@H](Cc1ccc2ccccc2c1)C(=O)O; AEF = NCCOc1ccc(C[C@H](N)C(=O)O)cc1; 3Pal = N[C@@H](Cc1cccnc1)C(=O)O; Lys(Me) = CNCCCC[C@H](N)C(=O)O; NMeK = CN[C@@H](CCCCN)C(=O)O; Pen = CC(C)(S)[C@H](N)C(=O)O; Thp = NC1(C(=O)O)CCOCC1; X1 = C[N+](C)(C)CCCCC*; ξN = NC(=O)CC(N)C(=O)O; AEEA = NCCOCCOCC(=O)O; Sar = CNCC(=O)O

Assay [1] concerns IL-23-stimulated phosphorylated STAT3 in peripheral blood mononuclear cells (PBMCs). The experiment in a line: PBMC pSTAT3 Assay. It counts as cell-based. The note with it: PBMCs from healthy donors; 30 min preincubation with peptide; IL-23 5 ng/mL for 30 min; phospho-STAT3 by MSD. In outline: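 Healthy-donor PBMCs expanded 4 days on anti-CD3 with 100 ng/mL IL-1β, starved ~4 h in RPMI-0.1% BSA, preincubated 30 min with peptide, then stimulated 30 min at 37 °C with 5 ng/mL IL-23. Lysate pSTAT3 measured by MSD phospho-STAT panel; IC50 derived.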

For the next assay, the target named is T1, IL-23R (Homo sapiens, UniProt Q5VWK5).
T1 construct: HEK293 cells containing IL-23R, IL-12Rβ1 and a firefly luciferase reporter gene driven by a STAT-inducible promoter (Promega); host or cells: HEK293
T1 sequence (Q5VWK5 24-629): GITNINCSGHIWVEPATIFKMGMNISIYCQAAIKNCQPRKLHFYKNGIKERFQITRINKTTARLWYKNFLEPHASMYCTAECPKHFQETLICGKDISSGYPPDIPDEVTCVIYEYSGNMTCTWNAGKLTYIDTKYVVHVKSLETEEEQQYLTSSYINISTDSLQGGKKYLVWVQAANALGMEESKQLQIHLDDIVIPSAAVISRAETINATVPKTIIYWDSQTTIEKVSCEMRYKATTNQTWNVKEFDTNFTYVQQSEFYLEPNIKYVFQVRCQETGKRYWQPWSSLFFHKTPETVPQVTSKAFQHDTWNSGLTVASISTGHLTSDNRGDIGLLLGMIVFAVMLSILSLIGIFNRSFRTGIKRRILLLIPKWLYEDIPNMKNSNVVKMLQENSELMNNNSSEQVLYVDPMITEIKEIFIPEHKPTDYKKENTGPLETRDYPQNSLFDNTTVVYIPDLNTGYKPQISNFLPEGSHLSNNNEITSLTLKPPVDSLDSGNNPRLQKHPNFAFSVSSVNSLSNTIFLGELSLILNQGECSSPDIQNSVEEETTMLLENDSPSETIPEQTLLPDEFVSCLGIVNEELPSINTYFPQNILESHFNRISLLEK
As to the kind of experiment: IL23R Reporter Assay. It counts as cell-based. The note with it: HEK293 cells containing IL-23R, IL-12Rβ1 and STAT-inducible firefly luciferase reporter; 10 ng/mL IL-23 (EC90); 5 h. In outline:
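HEK293 cells carrying IL-23R, IL-12Rβ1 and a STAT-driven firefly luciferase reporter (4000 cells/well) received compound, then 10 ng/mL IL-23 solution (EC90), and were incubated for 5 h at 37° C. BioGlo luminescence was normalised to IL-23 alone (0%) and 30 μM control inhibitor (100%). IC50 came from a 4-parameter Hill fit.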

In general, IC50 refers to the concentration needed to halve the response being measured. Lower therefore signals higher potency. Take `CC(=O)N(C)CCCC[C@@H]1NC(=O)[C@H](Cc2c[nH]c3c(C)cccc23)NC(=O)[C@H]([C@@H](C)O)NC(=O)[C@H](CC(=O)N(C)C)NC(=O)[C@@H](NC(=O)COCCOCCNC(=O)COCCOCCNC(=O)CC[C@H](NC(=O)CCCCCCCCCCCCCCCCCCC(=O)O)C(=O)O)C(C)(C)SSC(C)(C)[C@@H](C(=O)N[C@@H](Cc2ccc(OCCOCCOCC[N+](C)(C)C)cc2)C(=O)N[C@@H](Cc2ccc3ccccc3c2)C(=O)NC2(C(=O)N[C@@H](CCCCN(C)C(C)=O)C(=O)N[C@@H](CC(N)=O)C(=O)N[C@@H](Cc3cccnc3)C(=O)N(C)CC(=O)N(C)C)CCOCC2)NC1=O` [compound 110, HOC20gEPEG2PEG2CO-Pen(3)-N(N(Me)2)-T-7MeW-K(NMeAc)-Pen(3)-APEG3F-2Nal-THP-K(NMeAc)-N-3Pya-Sar-CON(Me)2] ({C20 diacid-γGlu-AEEA-AEEA}-[Pen]D(NMe2)T[Trp(7-Me)][Lys(Me)](Ac)[Pen]Y(CH2CH2OCH2CH2OCH2CH2NMe3+)[2Nal][Thp][Lys(Me)](Ac)N[3Pal][Sar]-NMe2; disulfide 1-6): the IC50 was less than 0.5 nM in assay [1] and 50 to 500 nM on IL-23R.
The corresponding values for `CC(=O)N(C)CCCC[C@@H]1NC(=O)[C@H](Cc2c[nH]c3c(C)cccc23)NC(=O)[C@H]([C@@H](C)O)NC(=O)[C@H](CC(=O)N(C)C)NC(=O)[C@@H](CC(=O)CCOCCOCC[N+](C)(C)C)C(C)(C)SSC(C)(C)[C@@H](C(=O)N[C@@H](Cc2ccc(OCCOCCOCC[N+](C)(C)C)cc2)C(=O)N[C@@H](Cc2ccc3ccccc3c2)C(=O)NC2(C(=O)N[C@@H](CCCCN(C)C(C)=O)C(=O)NC(CC(N)=O)C(=O)N[C@@H](Cc3cccnc3)C(=O)N(C)[C@@H](CCCCNC(=O)COCCOCCNC(=O)COCCOCCNC(=O)CC[C@H](NC(=O)CCCCCCCCCCCCCCCCCCC(=O)O)C(=O)O)C(N)=O)CCOCC2)NC1=O` (stereo partly drawn) [compound 112, cPEG3aCO-Pen(3)-N(N(Me)2)-T-7MeW-K(NMeAc)-Pen(3)-APEG3F-2Nal-THP-K(NMeAc)-N-3Pya-NMeK(PEG2PEG2gEC20OH)-CONH2] (D(NMe2)T[Trp(7-Me)][Lys(Me)](Ac)[Pen]Y(CH2CH2OCH2CH2OCH2CH2NMe3+)[2Nal][Thp][Lys(Me)](Ac)[ξN][3Pal][NMeK]([AEEA-AEEA-γGlu-C20 diacid])-NH2; linker N-5 via X16) are 0.5 to 5 nM and 50 to 500 nM.
On the same counts, the results for `CC(=O)N(C)CCCC[C@@H]1NC(=O)[C@H](Cc2c[nH]c3c(C)cccc23)NC(=O)[C@H]([C@@H](C)O)NC(=O)[C@H](CC(=O)N(C)C)NC(=O)[C@@H](CC(=O)CCOCCOCC[N+](C)(C)C)C(C)(C)SSC(C)(C)[C@@H](C(=O)N[C@@H](Cc2ccc(OCCOCCOCC[N+](C)(C)C)cc2)C(=O)N[C@@H](Cc2ccc3ccccc3c2)C(=O)NC2(C(=O)N[C@@H](CCCCN(C)C(C)=O)C(=O)NC(CC(N)=O)C(=O)N[C@@H](Cc3cccnc3)C(=O)N(C)[C@@H](CCCCNC(=O)COCCOCCNC(=O)COCCOCCNC(=O)CC[C@H](NC(=O)CCCCCCCCCCCCCCCCC(=O)O)C(=O)O)C(N)=O)CCOCC2)NC1=O` (stereo partly drawn) [compound 113, cPEG3aCO-Pen(3)-N(N(Me)2)-T-7MeW-K(NMeAc)-Pen(3)-APEG3F-2Nal-THP-K(NMeAc)-N-3Pya-NMeK(PEG2PEG2gEC18OH)-CONH2] (D(NMe2)T[Trp(7-Me)][Lys(Me)](Ac)[Pen]Y(CH2CH2OCH2CH2OCH2CH2NMe3+)[2Nal][Thp][Lys(Me)](Ac)[ξN][3Pal][NMeK]([AEEA-AEEA-γGlu-C18 diacid])-NH2; linker N-5 via X16) are less than 0.5 nM and less than 50 nM.
With `CC(=O)N(C)CCCC[C@@H]1NC(=O)[C@H](Cc2c[nH]c3c(C)cccc23)NC(=O)[C@H]([C@@H](C)O)NC(=O)[C@H](CCCCNC(=O)CCCCCOCCOCCOCCOCCOCCOCCOCCOCCOCCOCCOCCNC(=O)CC[C@H](NC(=O)CCCCCCCCCCCCCCCCC(=O)O)C(=O)O)NC(=O)[C@@H](NC(=O)CCOCCOCC[N+](C)(C)C)C(C)(C)SSC(C)(C)[C@@H](C(=O)N[C@@H](Cc2ccc(OCCCCC[N+](C)(C)C)cc2)C(=O)N[C@@H](Cc2ccc3ccccc3c2)C(=O)NC2(C(=O)N[C@@H](CCCCN(C)C(C)=O)C(=O)N[C@@H](CC(N)=O)C(=O)N[C@@H](Cc3cccnc3)C(=O)N(C)CC(=O)N(C)C)CCOCC2)NC1=O` [compound 115, cPEG3aCO-Pen(3)-K(PEG12gEC20OH)-T-7MeW-K(NMeAc)-Pen(3)-TMAPF-2Nal-THP-K(NMeAc)-N-3Pya-Sar-CON(Me)2] ({Me3N+(CH2)2O(CH2)2O(CH2)2CO}-[Pen]K(X9)T[Trp(7-Me)][Lys(Me)](Ac)[Pen]Y(X1)[2Nal][Thp][Lys(Me)](Ac)N[3Pal][Sar]-NMe2; disulfide 1-6), the IC50 in assay [1] is 0.5 to 5 nM; against IL-23R it was less than 50 nM.
On the same counts, the results for `CC(=O)N(C)CCCC[C@@H]1NC(=O)[C@H](Cc2c[nH]c3c(C)cccc23)NC(=O)[C@H]([C@@H](C)O)NC(=O)[C@H](CCCCNC(=O)CCCCCOCCOCCOCCOCCOCCOCCOCCOCCOCCOCCOCCNC(=O)CC[C@H](NC(=O)CCCCCCCCCCCCCCCCC(=O)O)C(=O)O)NC(=O)[C@@H](NC(=O)CCOCCOCC[N+](C)(C)C)C(C)(C)SSC(C)(C)[C@@H](C(=O)N[C@@H](Cc2ccc(OCCCCC[N+](C)(C)C)cc2)C(=O)N[C@@H](Cc2ccc3ccccc3c2)C(=O)NC2(C(=O)N[C@@H](CCCCN(C)C(C)=O)C(=O)N[C@@H](CC(N)=O)C(=O)N[C@@H](Cc3cccnc3)C(=O)N(C)CC(=O)N(C)C)CCOCC2)NC1=O` [compound 116, HOC18gEPEG12CO-Pen(3)-N-T-K(Ac)-Pen(3)-AEF-2Nal-THP-E-N-3Pya-Sar-CONH2] ({Me3N+(CH2)2O(CH2)2O(CH2)2CO}-[Pen]K(X9)T[Trp(7-Me)][Lys(Me)](Ac)[Pen]Y(X1)[2Nal][Thp][Lys(Me)](Ac)N[3Pal][Sar]-NMe2; disulfide 1-6) are less than 0.5 nM and less than 50 nM.
For the molecule `CC(=O)NCCCC[C@@H]1NC(=O)[C@H](Cc2c[nH]c3c(C)cccc23)NC(=O)[C@H]([C@@H](C)O)NC(=O)[C@H](CC(N)=O)NC(=O)[C@@H](NC(=O)[C@@H](CCCCNC(=O)CCOCCOCCOCCOCCOCCOCCOCCOCCOCCOCCOCCOCCNC(=O)CC[C@H](NC(=O)CCCCCCCCCCCCCCCCC(=O)O)C(=O)O)NC(C)=O)C(C)(C)SSC(C)(C)[C@@H](C(=O)N[C@@H](Cc2ccc(OCCN)cc2)C(=O)N[C@@H](Cc2ccc3ccccc3c2)C(=O)NC2(C(=O)N[C@@H](CCC(=O)O)C(=O)N[C@@H](CC(N)=O)C(=O)N[C@@H](Cc3cccnc3)C(=O)N(C)CC(N)=O)CCOCC2)NC1=O` [compound 117, MeCO-k(PEG12gEC18OH)-Pen(3)-N-T-7MeW-K(Ac)-Pen(3)-AEF-2Nal-THP-E-N-3Pya-Sar-CONH2] (Ac-[dK]([PEG12-γGlu-C18 diacid])[Pen]NT[Trp(7-Me)]K(Ac)[Pen][AEF][2Nal][Thp]EN[3Pal][Sar]-NH2; disulfide 2-7), the IC50 is less than 0.5 nM in assay [1] and less than 50 nM at IL-23R.
